According to patent US20200181284A1, “EPIGENETIC INHIBITORS FOR SENSITIZING HEMATOLOGIC OR OTHER MALIGNANCIES TO GLUCOCORTICOID THERAPY” (UNIVERSITY OF SOUTHERN CALIFORNIA, priority 2017, published 2020):

Columns and labels:
G9a methylation = G9a methylation level in NALM6 cells treated with KDM inhibitors; format: cell-based, human
From the text: There are two distinct families of KDM with distinct catalytic mechanisms (FIG. 50B). We tested one inhibitor for each family: OG-L002 inhibits the two members of the LSD family of KDM, and JIB-04 inhibits several members of the large JmjC family of KDM, including members of the KDM2, KDM3, and KDM4 subfamilies. We propose that there is an equilibrium between the enzymes that methylate G9a and GLP (in this case they methylate themselves) and the KDM enzymes to maintain a moderate level of G9a/GLP methylation (FIGS. 50C-1, 50C-2), and that inhibition of the KDMs that normally demethylate G9a and GLP (currently unknown) will increase the level of G9a/GLP methylation and thereby enhance the coactivator activity of G9a/GLP, the GC activation of the cell death genes, and GC-induced cell death in B-ALL cells. Thus, as a first step to identify the G9a/GLP-specific demethylases, we treated NALM6 cells with the two inhibitors named above. OG-L002 had no effect on the level of G9a methylation, but JIB-04 increased the level of G9a methylation in NALM6 cells (FIG. 50D).

[1] = tested on: GR target genes in NALM6 cells; experiment: RT-qPCR of GR target genes in NALM6 cells; format: cell-based, human; conditions: NALM6 cells, KDM inhibitor
Description: RNA was isolated using TRIzol (Invitrogen) according to the manufacturer's instructions. Reverse transcription reaction was performed using Superscript III (ThermoFisher) according to specifications with 1 μg of total RNA as template. Quantitative PCR amplification of the resulting cDNA was performed on a Roche LightCycler 480 using SYBR green I master mix (Roche). mRNA levels were normalized to the level of b-actin mRNA.
FIGS. 40A, 40B, 40C, 40D-1, 40D-2, 40D-3, and 40D-4 show Aurora kinase B inhibitors sensitizing NALM6 cells to GC-induced cell death. As shown in FIGS. 40A and 40B, NALM6 cells were treated with the indicated dex concentration in addition to 0.75 μM ZM447439 (FIG. 40A), 16 nM AZD2811 (FIG. 40B), or equivalent volume of vehicle DMSO for 72 h, and cell survival was measured by a fluorescence metabolic assay. In each condition, the value measured with dex was normalized to the fluorescence value measured with ethanol. Percentage of survival is shown as the mean±SEM of 4 independent experiments and p-values for individual dex concentrations were calculated using a paired t-test. *p≤0.05, **p≤0.01, * * *p≤0.001. F-test comparing the two curves: p≤0.001. Insets show the EC50s that were calculated as the concentration at which half the cells remained alive, compare to vehicle controls. Error bars depict the SEM of 4 independent experiments and p-values were calculated to compare AURKB inhibitor treatment to DMSO using a paired t-test ** p≤0.01, * * *p≤0.001. […] The indicated proteins were then examined by immunoblot. As shown in FIGS. 40D-1, 40D-2, 40D-3, and 40D-4, NALM6 cells pre-treated with AZD2811 (16 nM) or DMSO for 24 h, were then treated for 8 h with 100 nM dex or ethanol. mRNA levels for the indicated GR target genes were measured by RT-qPCR and normalized to β-actin mRNA levels.
FIGS. 54A, 54B, and 54C highlight the GR Target genes that require G9a and GLP as coactivators.

hGLP = biological target: T1, hGLP (Homo sapiens, UniProt Q9H9B1); experiment: Methylation of HA-hGLP in Cos-7 cells (pan met-K immunoprecipitation/immunoblot); format: cell-based, African green monkey; conditions: 2 μM, 24 h
T1 construct: expressed in transfected cells; host or cells: Cos-7
T1 sequence (Q9H9B1 whole entry): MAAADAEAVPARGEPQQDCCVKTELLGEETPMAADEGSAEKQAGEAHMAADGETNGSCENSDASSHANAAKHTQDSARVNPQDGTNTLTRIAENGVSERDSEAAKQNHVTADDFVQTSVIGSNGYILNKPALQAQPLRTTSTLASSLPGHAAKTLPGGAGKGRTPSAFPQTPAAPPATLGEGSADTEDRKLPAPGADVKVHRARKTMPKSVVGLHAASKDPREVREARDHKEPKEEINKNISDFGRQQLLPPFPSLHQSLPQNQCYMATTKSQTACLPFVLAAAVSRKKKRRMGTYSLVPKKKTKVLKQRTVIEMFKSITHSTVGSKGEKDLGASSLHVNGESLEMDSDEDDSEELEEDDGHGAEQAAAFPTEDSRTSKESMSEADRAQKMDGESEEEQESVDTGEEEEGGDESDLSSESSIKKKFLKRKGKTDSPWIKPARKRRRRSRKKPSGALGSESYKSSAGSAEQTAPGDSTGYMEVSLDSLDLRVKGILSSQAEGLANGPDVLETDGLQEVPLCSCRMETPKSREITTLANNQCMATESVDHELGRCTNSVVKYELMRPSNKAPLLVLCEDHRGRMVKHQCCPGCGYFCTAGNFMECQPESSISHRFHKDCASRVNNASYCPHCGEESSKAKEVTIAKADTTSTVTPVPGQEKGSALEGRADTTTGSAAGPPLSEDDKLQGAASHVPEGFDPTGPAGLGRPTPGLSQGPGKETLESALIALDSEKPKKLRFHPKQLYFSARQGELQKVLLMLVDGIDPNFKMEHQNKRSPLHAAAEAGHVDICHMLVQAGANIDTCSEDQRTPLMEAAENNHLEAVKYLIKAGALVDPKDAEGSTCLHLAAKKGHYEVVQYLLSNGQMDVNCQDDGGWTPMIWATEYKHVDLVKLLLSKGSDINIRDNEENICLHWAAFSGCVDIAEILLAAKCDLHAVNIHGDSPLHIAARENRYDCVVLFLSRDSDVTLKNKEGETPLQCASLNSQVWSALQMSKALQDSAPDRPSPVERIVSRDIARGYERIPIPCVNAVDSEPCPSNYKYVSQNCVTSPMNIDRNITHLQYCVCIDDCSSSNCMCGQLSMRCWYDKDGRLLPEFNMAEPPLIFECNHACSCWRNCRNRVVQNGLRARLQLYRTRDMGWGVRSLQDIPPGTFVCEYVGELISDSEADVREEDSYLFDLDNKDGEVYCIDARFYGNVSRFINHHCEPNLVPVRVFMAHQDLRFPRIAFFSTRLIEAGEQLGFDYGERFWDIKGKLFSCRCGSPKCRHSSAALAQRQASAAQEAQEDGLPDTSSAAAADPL
Description: Cos-7 or A549 cells were seeded on 10-cm dishes the day before transfection. Cells were transiently transfected (where indicated) using Lipofectamine 2000 (Invitrogen) with 5 μg each of the indicated plasmids according to the manufacturer's protocol. […] Protein extracts were incubated with 1 μg of the indicated primary antibodies overnight at 4° C. with shaking. Protein A/G Plus Agarose (Santa Cruz sc-2003) beads were added and the mixture was incubated 2 hr at 4° C. The immunoprecipitates were separated on SDS-PAGE. […] In immunoprecipitation experiments 3% of the input of each sample was analyzed by immunoblot using the antibodies listed. […]

Compound: Clc1ccc(N/N=C(\c2ccccc2)c2ccccn2)nc1 [JIB-04, 5-chloro-N-[(E)-[phenyl(pyridin-2-yl)methylidene]amino]pyridin-2-amine]
- level of G9a methylation (G9a methylation): increased
- dex-induced expression of FKBPS (independent of G9a and GLP) [1]: no effect
- dex-induced expression of G9a/GLP-dependent GR target genes (TXNIP, GILZ, and NFKBIA) [1]: enhanced

Compound: COc1cc2c(NC3CCN(C4CCCCC4)CC3)nc(N3CCCN(C(C)C)CC3)nc2cc1OCCCN1CCCCC1 [UNC0646]
- GLP methylation in cells (hGLP): reduced
